Laboratory results: ChEMBL document CHEMBL1201862, “PubChem BioAssay data set” (2004)
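Tested at 5 concentrations; 48 h exposure; 96-well plates; endpoints linearly interpolated, else capped at highest concentration. At the GI50, growth is halved.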 The source made the active and inactive calls. No stated cut-off is given here; in the data, active = GI50 up to about 1.1 µM and inactive = higher.

Tests used:
Assay in all cases: NCI tumour cell line growth inhibition, 48 h
786-0 = tested on: 786-0
CAKI-1 = tested on: CAKI-1
CCRF-CEM = tested on: CCRF-CEM
DU-145 = tested on: DU-145
HOP-62 = tested on: HOP-62
HOP-92 = tested on: HOP-92
HT-29 = tested on: HT-29
IGROV-1 = tested on: IGROV-1
MDA-MB-435 = tested on: MDA-MB-435
NCI-H23 = tested on: NCI-H23
OVCAR-3 = tested on: OVCAR-3
OVCAR-4 = tested on: OVCAR-4
OVCAR-8 = tested on: OVCAR-8
SF-268 = tested on: SF-268
SF-295 = tested on: SF-295
SK-MEL-28 = tested on: SK-MEL-28
SK-MEL-5 = tested on: SK-MEL-5
U-251 = tested on: U-251
UACC-257 = tested on: UACC-257
UACC-62 = tested on: UACC-62

Measured: GI50

O=c1oc2ccc3ccccc3c2cc1-c1nc2ccccc2o1
inactive: 786-0 18.6 µM | CAKI-1 17.1 µM | CCRF-CEM 37.7 µM | DU-145 20.7 µM | HOP-62 18.6 µM | HOP-92 16.4 µM | HT-29 20.7 µM | IGROV-1 12.7 µM | MDA-MB-435 23.2 µM | NCI-H23 27.4 µM | OVCAR-3 15.3 µM | OVCAR-4 21 µM | OVCAR-8 23.2 µM | SF-268 22.1 µM | SF-295 26.2 µM | SK-MEL-28 22.6 µM | SK-MEL-5 25.9 µM | U-251 22.2 µM | UACC-257 > 49.9 µM | UACC-62 36.1 µM

ClCc1nc2ccccc2[nH]1
inactive: 786-0 > 100 µM | CAKI-1 > 100 µM | CCRF-CEM > 100 µM | DU-145 > 100 µM | HOP-62 > 100 µM | HOP-92 > 100 µM | HT-29 > 100 µM | IGROV-1 > 100 µM | MDA-MB-435 > 100 µM | NCI-H23 > 100 µM | OVCAR-3 > 100 µM | OVCAR-4 > 100 µM | OVCAR-8 > 100 µM | SF-268 > 100 µM | SF-295 > 100 µM | SK-MEL-28 > 100 µM | SK-MEL-5 > 100 µM | U-251 > 100 µM | UACC-257 > 100 µM | UACC-62 > 100 µM

COc1cc2c(cc1O)NC(=S)[C@@H]1CCCN1C2=O
inactive: 786-0 > 100 µM | CAKI-1 > 100 µM | CCRF-CEM 76.6 µM | DU-145 > 100 µM | HOP-62 > 100 µM | HOP-92 > 100 µM | HT-29 > 100 µM | IGROV-1 > 100 µM | MDA-MB-435 > 100 µM | NCI-H23 > 100 µM | OVCAR-3 > 100 µM | OVCAR-4 > 100 µM | OVCAR-8 > 100 µM | SF-268 > 100 µM | SF-295 97.1 µM | SK-MEL-28 > 100 µM | SK-MEL-5 > 100 µM | U-251 > 100 µM | UACC-257 > 100 µM | UACC-62 > 100 µM

O=C(CCCN1CCC2(CC1)C(=O)NC(=O)N2c1ccccc1)c1ccc(F)cc1
inactive: 786-0 > 100 µM | CAKI-1 > 100 µM | CCRF-CEM > 100 µM | DU-145 > 100 µM | HOP-62 > 100 µM | HOP-92 > 100 µM | HT-29 66.2 µM | IGROV-1 > 100 µM | MDA-MB-435 > 100 µM | NCI-H23 > 100 µM | OVCAR-3 > 100 µM | OVCAR-4 > 100 µM | OVCAR-8 > 100 µM | SF-268 > 100 µM | SF-295 > 100 µM | SK-MEL-28 > 100 µM | SK-MEL-5 > 100 µM | U-251 > 100 µM | UACC-257 > 100 µM | UACC-62 > 100 µM

CCN(CC)c1cc2c3c(c1)CCCN3CCC2
inactive: 786-0 > 10 µM | CAKI-1 > 10 µM | CCRF-CEM > 10 µM | DU-145 > 10 µM | HOP-62 > 10 µM | HOP-92 > 10 µM | HT-29 > 10 µM | IGROV-1 > 10 µM | MDA-MB-435 > 10 µM | NCI-H23 > 10 µM | OVCAR-3 > 10 µM | OVCAR-4 > 10 µM | OVCAR-8 > 10 µM | SF-268 > 10 µM | SF-295 > 10 µM | SK-MEL-28 > 10 µM | SK-MEL-5 > 10 µM | U-251 > 10 µM | UACC-257 > 10 µM | UACC-62 > 10 µM

Cc1ccc2cccc3c2c1CC1(C3=O)S(=O)(=O)OCCOS1(=O)=O
inactive: 786-0 > 100 µM | CAKI-1 > 100 µM | CCRF-CEM > 100 µM | DU-145 > 100 µM | HOP-62 > 100 µM | HOP-92 > 100 µM | HT-29 > 100 µM | IGROV-1 > 100 µM | MDA-MB-435 > 100 µM | NCI-H23 > 100 µM | OVCAR-3 > 100 µM | OVCAR-4 > 100 µM | OVCAR-8 > 100 µM | SF-268 > 100 µM | SF-295 > 100 µM | SK-MEL-28 > 100 µM | SK-MEL-5 > 100 µM | U-251 > 100 µM | UACC-257 > 100 µM | UACC-62 > 100 µM

CC[C@]1(Cc2ccc(OC)c(OC)c2)CN(S(=O)(=O)c2ccc(C)cc2)C[C@@H]1OC(C)=O
inactive: 786-0 39.2 µM | CAKI-1 95.7 µM | CCRF-CEM > 100 µM | DU-145 > 100 µM | HOP-62 33 µM | HOP-92 40.4 µM | HT-29 96.8 µM | IGROV-1 85.5 µM | MDA-MB-435 > 100 µM | NCI-H23 > 100 µM | OVCAR-3 67.8 µM | OVCAR-4 > 100 µM | OVCAR-8 58.7 µM | SF-268 > 100 µM | SF-295 38.5 µM | SK-MEL-28 > 100 µM | SK-MEL-5 > 100 µM | U-251 65.6 µM | UACC-257 > 100 µM | UACC-62 > 100 µM
